Test results reported in patent US7371755B1 (Biota Scientific Management Pty Ltd., priority 1999, dated 2008).
≈ marks a conversion by molar mass, not a printed value. Read-outs that look alike come from different tables or passages of the source.

Legend:
HRV type 1A = test: Inhibition of viral cytopathic effect (CPE), HRV type 1A in MRC-5 cells; type: cell-based, human rhinovirus; conditions: for EC50: Enterovirus
Description: (§5) The ability of compounds to suppress virus replication and thereby protect cells from HRV-induced CPE was measured using human embryo lung (MRC-5) and human epidermoid carcinoma of the mouth (KB) cells infected with HRV type 1A and HRV type 2, respectively. […] Test compounds were dissolved in 100% anhydrous dimethyl sulfoxide and serially diluted in tissue culture medium. The antiviral potency of the test compounds was assessed by exposing replicate tissue culture wells to a selected dilution series of between 6 and 7 compound concentrations in the presence of sufficient test virus to invoke significant CPE over the course of the assay. Control cells were also exposed to identical concentrations of compounds in the absence of virus or were infected with virus under the same conditions but in the absence of compounds. Compounds of established anti-HRV efficacy (enviroxime, ribavirin and pirodavir) were assayed by identical procedures in parallel to the test compounds. Tissue culture media were identically supplemented to maintain cell viability and support viral growth while suppressing bacterial growth over the period of the assay (supplements: 2% fetal calf serum, 0.01% sodium bicarbonate, 50 g/ml gentamicin, 5 M magnesium chloride, 10 mM of zinc chloride). […] At this time all infected cultures were examined by eye using a light microscope and CPE scored on a scale of 0 (no CPE) to 4 (maximum CPE). Uninfected treated cultures were similarly scored for cytotoxic effects (eg. cell enlargement, granularity, rounding, detachment). […] As an alternative to a CC50 value, cytoxicity in some cases was expressed as the Minimum Toxic Concentration (MTC).
(§6) Vital dye staining to measure cell viability was also used to quantify CPE and cytotoxic effects. […] After the assay had been scored by eye with the aid of a microscope, 100 1 of neutral red (NR) solution (0.34% NR in phosphate buffered saline (PBS)) was added to each well and mixed gently. The assays were returned to the 37° C. incubator for 2 hours to facilitate uptake of the NR by viable cells. The medium/NR mixture was then aspirated from the surface of the cells, which were washed twice with PBS. 0.25 ml of absolute ethanol containing Sorensen's citrate buffer I, was added with gentle mixing and the assays incubated at room temperature in the dark for 30 minutes to dissolve the NR. NR staining of viable cells was then quantified spectrophotometrically by measuring the colour density of the NR solution using a BioTek EL-309 microplate reader at dual wavelengths of 540 and 405 nm. The differences in the two readings were automatically determined to eliminate background errors. EC50 and CC50 values were determined by regression analysis matching compound concentration to NR staining. The XTT method involved use of a solution of XTT (1 mg/ml in culture media) which was added to each well and the plates incubated at 37° C. for 4 hours. XTT metabolism was measured spectrophotometrically using a similar method to that described above except that the dual wavelengths were 450 nm and 650 nm. EC50 and CC50 values were determined by regression analysis using a similar method to that described above.

[1] = Cytotoxicity in uninfected treated cultures (HRV type 1A assay); type: cell-based, human; conditions: human
Description: as §5, §6

Enterovirus 70 = test: Activity against Enterovirus 70 in mammalian cell culture assay; type: cell-based
Description: (§1) Activity against Enteroviruses in Mammalian Cell Culture Assays Compounds 50 and 56 of the Invention were Tested Against Other Picornaviruses Using Similar cell based assays to those described in example 30 above and the results are shown in Table 6 below: […]

Coxsackie A21 = test: Activity against Coxsackie A21 in mammalian cell culture assay; type: cell-based
Description: as §1

Echo 21 = test: Activity against Echo 21 in mammalian cell culture assay; type: cell-based
Description: as §1

in vitro = type: cell-based
Description: as §1

HRV type 2 = test: Inhibition of viral cytopathic effect (CPE), HRV type 2 in KB cells; type: cell-based, human rhinovirus; conditions: for EC50: Enterovirus, read-out: Activity on Rhinovirus Type 2 EC50
Description: as §5, §6

[2] = system: human epidermoid carcinoma of the mouth (KB) cells; test: Cytotoxicity in uninfected treated cultures (HRV type 2 assay)
Description: (§2) The ability of compounds to suppress virus replication and thereby protect cells from HRV-induced CPE was measured using human embryo lung (MRC-5) and human epidermoid carcinoma of the mouth (KB) cells infected with HRV type 1A and HRV type 2, respectively. Cells grown in 96 well tissue culture plates using conventional mammalian tissue culture medium (such as minimum essential medium) supplemented with fetal calf serum were used in an assay essentially similar to that described by Sidwell and Huffman (Applied Microbiology, 22, 797-801 (1971)). Test compounds were dissolved in 100% anhydrous dimethyl sulfoxide and serially diluted in tissue culture medium. The antiviral potency of the test compounds was assessed by exposing replicate tissue culture wells to a selected dilution series of between 6 and 7 compound concentrations in the presence of sufficient test virus to invoke significant CPE over the course of the assay. Control cells were also exposed to identical concentrations of compounds in the absence of virus or were infected with virus under the same conditions but in the absence of compounds. Compounds of established anti-HRV efficacy (enviroxime, ribavirin and pirodavir) were assayed by identical procedures in parallel to the test compounds. Tissue culture media were identically supplemented to maintain cell viability and support viral growth while suppressing bacterial growth over the period of the assay (supplements: 2% fetal calf serum, 0.01% sodium bicarbonate, […] gentamicin, […] magnesium chloride, […] of zinc chloride). […] At this time all infected cultures were examined by eye using a light microscope and CPE scored on a scale of 0 (no CPE) to 4 (maximum CPE). Uninfected treated cultures were similarly scored for cytotoxic effects (eg. cell enlargement, granularity, rounding, detachment). […] As an alternative to a CC50 value, cytoxicity in some cases was expressed as the Minimum Toxic Concentration (MTC).
(§3) Vital dye staining to measure cell viability was also used to quantify CPE and cytotoxic effects. The vital dye technique was based on either neutral red uptake (Modification of the method of McManus, Appl. Environment. Microbiol., 31, 35-38, 1976) or XXT metabolism. After the assay had been scored by eye with the aid of a microscope, 100 1 of neutral red (NR) solution (0.34% NR in phosphate buffered saline (PBS)) was added to each well and mixed gently. The assays were returned to the 37° C. incubator for 2 hours to facilitate uptake of the NR by viable cells. The medium/NR mixture was then aspirated from the surface of the cells, which were washed twice with PBS. 0.25 ml of absolute ethanol containing Sorensen's citrate buffer I, was added with gentle mixing and the assays incubated at room temperature in the dark for 30 minutes to dissolve the NR. NR staining of viable cells was then quantified spectrophotometrically by measuring the colour density of the NR solution using a BioTek EL-309 microplate reader at dual wavelengths of 540 and 405 nm. The differences in the two readings were automatically determined to eliminate background errors. EC50 and CC50 values were determined by regression analysis matching compound concentration to NR staining. The XTT method involved use of a solution of XTT (1 mg/ml in culture media) which was added to each well and the plates incubated at 37° C. for 4 hours. XTT metabolism was measured spectrophotometrically using a similar method to that described above except that the dual wavelengths were 450 nm and 650 nm. EC50 and CC50 values were determined by regression analysis using a similar method to that described above.
(§4) Selectivity indices (SI) are the CC50 or MTC divided by the EC50.

[3] = system: human embryo lung (MRC-5) cells; test: Cytotoxicity in uninfected treated cultures (HRV type 1A assay); type: cell-based
Description: as §5, §6

mammalian cell culture [4] = type: cell-based
Description: as §1

mammalian cell culture [5] = test: in vitro; type: cell-based
Description: as §1

[6] = Cytotoxicity in uninfected treated cultures (HRV type 2 assay); conditions: human
Description: as §2, §3, §4

[7] = MRC5, HRV type 1A, MRC-5 cells, concentration yielding 50% antiviral efficacy, read-out: Activity on Rhinovirus Type 1A EC50
[8] = Enterovirus D; read-out: Activity on Enterovirus 70 EC50
[9] = HRV type 2, KB cells, concentration yielding 50% antiviral efficacy
[10] = HRV type 1A, MRC-5 cells, concentration yielding 50% antiviral efficacy
[11] = MRC5, read-out: Activity on Rhinovirus Type 1A EC50

| Structure (SMILES) | CC50 [1] | Activity on Rhinovirus Type 2 EC50 (HRV type 2; [9]) | Activity on Rhinovirus Type 2 CC50 [2] | Activity on Rhinovirus Type 1A EC50 (HRV type 1A; [10]) | Activity on Rhinovirus Type 1A CC50 [3] | also measured |
| --- | --- | --- | --- | --- | --- | --- |
| CC(C)S(=O)(=O)n1c(N)nc2ccc(/C(=N/O)c3ccccc3)cc21 [Enviroxime] | 0.49 µg/mL (≈ 1.37 µM) | – | – | – | – | EC50 (HRV type 1A; [7]): 0.006 µg/mL (≈ 0.0167 µM); EC50 (Enterovirus 70; [8]): 0.21 µg/mL (≈ 0.586 µM); EC50 (Coxsackie A21): 0.39 µg/mL (≈ 1.09 µM); EC50 (Echo 21): 0.03 µg/mL (≈ 0.0837 µM); CC50 (in vitro): 0.45 µg/mL (≈ 1.26 µM) |
| Cc1cc(-c2noc(C(F)(F)F)n2)cc(C)c1OCCCc1cc(COCCOCCOCCOCCOCc2ccc(COCCOCCOCCOCCOCc3cc(CCCOc4c(C)cc(-c5noc(C(F)(F)F)n5)cc4C)on3)cc2)no1 [Compound 56] | – | 0.09 µg/mL | 2 µg/mL | 1.8 µg/mL | 10 µg/mL | Activity on Enterovirus 70 EC50 (Enterovirus 70; Enterovirus 70): 2.88 µg/mL; Activity on Coxsackie A21 CC50 (mammalian cell culture [4]): 11.1 µg/mL; Activity on Enterovirus 70 CC50 (mammalian cell culture [4]): > 50 µg/mL; Activity on Coxsackie A21 EC50 (Coxsackie A21): 0.36 µg/mL; Activity on Echo 21 EC50 (Echo 21): 0.0026 µg/mL; Activity on Echo 21 CC50 (mammalian cell culture [5]): 7.93 µg/mL |
| CCOC(=O)c1ccc(OCCC2CCN(c3ccc(C)nn3)CC2)cc1 [Pirodavir, reference compound] | > 10 µg/mL | – | – | – | – | EC50 (HRV type 2; [9]): 0.003 µg/mL (≈ 0.00812 µM); EC50 (HRV type 1A; [7]): 0.02 µg/mL (≈ 0.0541 µM) |
| Cc1cc(-c2ccccc2)cc(C)c1OCCCc1cc(COCCOCCOCCO)no1 [Compound 8] | – | 0.001 µg/mL | 5 µg/mL | 0.59 µg/mL | 22.7 µg/mL | – |
| COCc1cc(CCCOc2c(C)cc(-c3ccccc3)cc2C)on1 [Compound 6, 3-(methoxymethyl)-5-[3-[2,6-dimethyl-4-phenylphenoxy]-propyl]-isoxazole] | > 50 µg/mL | – | – | – | – | EC50 (HRV type 2; [9]): < 0.005 µg/mL; CC50 ([6]; KB cells, uninfected): > 5 µg/mL; EC50 (HRV type 1A; [7]): 0.16 µg/mL (≈ 0.455 µM) |
| CC(=O)NCCOCCOCc1cc(CCCOc2c(C)cc(-c3ccccc3)cc2C)on1 [Compound 19] | – | – | – | – | – | EC50 (HRV type 2; KB): < 0.005 µg/mL; CC50 [6]: 2 µg/mL (≈ 4.29 µM); EC50 (HRV type 1A; [11]): 0.87 µg/mL (≈ 1.86 µM); CC50 ([1]; MRC-5 cells, no virus, CC50 or, in some cases, MTC, read-out: Activity on Rhinovirus Type 1A CC50): 5.79 µg/mL (≈ 12.4 µM) |
| Cc1cc(CCCOc2c(C)cc(-c3noc(C(F)(F)F)n3)cc2C)on1 [Pleconaril, reference compound] | 10 µg/mL (≈ 26.2 µM) | – | – | – | – | EC50 (HRV type 2; KB): 0.05 µg/mL (≈ 0.131 µM); CC50 ([6]; KB cells, uninfected): 0.5 µg/mL (≈ 1.31 µM); EC50 (HRV type 1A; [11]): 0.02 µg/mL (≈ 0.0524 µM); EC50 (Enterovirus 70; Enterovirus D, read-out: Activity on Enterovirus 70 EC50): 0.28 µg/mL (≈ 0.734 µM); EC50 (Coxsackie A21): 0.0033 µg/mL (≈ 0.00865 µM); EC50 (Echo 21): > 0.00016 µg/mL |
| Cc1cc(-c2ccccc2)cc(C)c1OCCCc1cc(COCCOCCOCCOCc2cc(CCCOc3c(C)cc(-c4ccccc4)cc3C)on2)no1 [Compound 32, 1,8-bis-[5-[3-[2,6-dimethyl-4-phenylphenoxy]-propyl]-isoxazolyl-3-methyloxy]-3,6-dioxaoctane] | – | 0.1 µg/mL | > 5 µg/mL | 0.32 µg/mL | > 50 µg/mL | – |
| Cc1cc(-c2ccccc2)cc(C)c1OCCCc1cc(COCCOCCOCCOCCOCCOCCO)no1 [Compound 10] | – | 0.1 µg/mL | 5 µg/mL | >50 µg/mL | 19 µg/mL | – |
| NC(=O)c1ncn([C@@H]2O[C@H](CO)[C@@H](O)[C@H]2O)n1 [Ribavirin] | 98.3 µg/mL (≈ 403 µM) | – | – | – | – | EC50 (Enterovirus 70; [8]): > 100 µg/mL; EC50 (Coxsackie A21): > 100 µg/mL; EC50 (Echo 21): 3 µg/mL (≈ 12.3 µM) |
| Cc1cc(-c2noc(C(F)(F)F)n2)cc(C)c1OCCCc1cc(COCCOCCOCCO)no1 [Compound 24] | – | 0.04 µg/mL | > 1 µg/mL | 0.21 µg/mL | 5.28 µg/mL | – |
| Cc1cc(-c2noc(C(F)(F)F)n2)cc(C)c1OCCCc1cc(COCCOCCOCc2cc(CCCOc3c(C)cc(-c4noc(C(F)(F)F)n4)cc3C)on2)no1 [Compound 50, 1,5-bis-[5-[3-[2,6-dimethyl-4-(5-trifluoromethyl-1,2,4-oxadiazolyl)phenoxy]-propyl]-isoxazolyl-3-methyloxy]-3-oxapentane] | – | 0.02 µg/mL | 2 µg/mL | 0.06 µg/mL | 10 µg/mL | Activity on Enterovirus 70 EC50 (Enterovirus 70; Enterovirus 70): >50 µg/mL; Activity on Coxsackie A21 CC50 (mammalian cell culture [4]): > 50 µg/mL; Activity on Enterovirus 70 CC50 (mammalian cell culture [4]): > 50 µg/mL; Activity on Coxsackie A21 EC50 (Coxsackie A21): 0.35 µg/mL; Activity on Echo 21 EC50 (Echo 21): 0.0006 µg/mL; Activity on Echo 21 CC50 (mammalian cell culture [5]): 46.3 µg/mL |
| Cc1cc(-c2ccccc2)cc(C)c1OCCCc1cc(COCCOCCOCCOCCNC(=O)Nc2ccc(Cc3ccc(NC(=O)NCCOCCOCCOCCOCc4cc(CCCOc5c(C)cc(-c6ccccc6)cc5C)on4)cc3)cc2)no1 [Compound 48] | – | 0.6 µg/mL | > 5 µg/mL | 3.85 µg/mL | 30.6 µg/mL | – |
| Cc1cc(-c2ccccc2)cc(C)c1OCCCc1cc(COCCOCCOCCOCCOCCOCCOCc2cc(CCCOc3c(C)cc(-c4ccccc4)cc3C)on2)no1 [Compound 34] | – | 0.09 µg/mL | > 0.5 µg/mL | >50 µg/mL | 10.9 µg/mL | – |
